# “Also recorded” adds a separate entry of the source.
# How the values were obtained:
# TrxR1 = conditions: read-out: TrxR1 inhibition IC50; cited from earlier work
# Sec residue in TrxR1 = target: T1, Sec residue in TrxR1 (Homo sapiens, UniProt Q16881); assay: BIAM labeling assay; type: biochemical; conditions: pH 6.5; PepE 1, 5, 10 μM; DNCB 5 μM
# T1 construct: purchased Abcam ab204206
# T1 sequence (Q16881 1-499 isoform Q16881-5): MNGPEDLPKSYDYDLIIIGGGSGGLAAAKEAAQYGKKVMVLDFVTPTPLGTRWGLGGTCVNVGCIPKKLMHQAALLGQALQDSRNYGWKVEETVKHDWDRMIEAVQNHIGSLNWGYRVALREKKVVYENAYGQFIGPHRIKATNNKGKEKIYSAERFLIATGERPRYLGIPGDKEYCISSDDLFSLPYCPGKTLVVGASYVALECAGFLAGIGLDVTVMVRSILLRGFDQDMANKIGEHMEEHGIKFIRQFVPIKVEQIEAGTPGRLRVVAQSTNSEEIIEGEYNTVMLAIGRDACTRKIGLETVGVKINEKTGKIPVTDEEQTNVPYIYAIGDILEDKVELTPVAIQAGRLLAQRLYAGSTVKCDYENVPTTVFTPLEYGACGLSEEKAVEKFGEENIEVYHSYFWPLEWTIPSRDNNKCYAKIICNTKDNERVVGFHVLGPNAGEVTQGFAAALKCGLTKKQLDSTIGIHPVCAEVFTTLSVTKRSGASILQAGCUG
# Procedure: To further assess whether the Sec residue in TrxR1 was the modified site of PepE. The BIAM labeling assay was performed according to previous report. Briefly, 100 μM BIAM stock solution in 100 mM Tris-HCl, 1 mM EDTA buffer (pH = 6.5) was freshly prepared before each test. The TrxR1 protein (1 μM) was incubated with different concentrations (1, 5, 10 μM) of PepE or 5 μM of DNCB (positive control) and DMSO (negative control) in 50 mM Tris-HCl, 1 mM EDTA buffer (pH = 7.5) and 400 μM NADPH at 37 °C. After incubation, 4 μL of the reaction mixture was withdrawn and added mixed with 20 μM of BIAM solution in 100 mM Tris-HCl, 1 mM EDTA assay buffer (pH = 6.5) for 30 min at 37 °C to allow selective alkylation of free Sec residues. The reaction was stopped by adding the IAA solution (final concentration 50 mM). The samples were then denatured in SDS buffer, boiled and subjected to SDS-PAGE and western-blotting on a 7.5% gel, and the separated proteins were transferred to nitrocellulose membrane. The enzymes labeled with BIAM were detected with HRP-conjugated streptavidin and enhanced chemiluminescence detection. The bands were analyzed using Gel-pro 32 software.
# KG-1a CD34+ cells = assay: KG-1a-Luc CD34+ xenograft in NOD/SCID mice, bioluminescence; type: in vivo; conditions: 50 mg/kg i.g. daily, 5 weeks
# Procedure: Six-week-old female NOD-SCID mice (obtained from the model animal research center of Nanjing University, Nanjing, China) were acclimated for 1 week and housed in groups of five. All animal studies were conducted under the guidelines approved by the Animal Care and Use Committee of the Nanjing University of Chinese Medicine (Nanjing, China). The mice were sublethally irradiated with 2.7 Gy before transplantation.
# KG-1a cells tagged with a luciferase reporter gene (KG-1a-Luc) were obtained from Cobioer biotechnology Inc. (Nanjing, Jiangsu, China) and cultured in 90% IMDM supplemented with 10% FBS, 0.05 mM 2-Mercaptoethanol, and 1 μg/mL Puromycin, and grown at 37 °C in a 5% CO2 humidified incubator. CD34 positive cells were enriched (following the 2.3 method) and injected via the tail vein in a final volume of 0.2 mL PBS with 0.5% FBS. For analyzing the luciferase signal, 5 × 10^6 cells KG-1a-Luc cells were used for each recipient animal. Seven days after transplantation, mice with KG-1a-Luc implants were subjected to bioluminescent analysis based on the luciferase signal. Briefly, mice received D-luciferin phosphate solution (100 mg/kg) intravenously 10 min prior to imaging. They were then anesthetized with isoflurane inhalation and imaged using a Xenogen IVIS scanner (PerkinElmer, Waltham, MA, USA). The next day, mice showing successful implantations were randomly divided into the control, DMAPE low dose, DMAPE high dose, and Ara-C treatment groups (n = 5 in each group), which received daily i. g. saline buffer, DMAPE phosphate salt 25 mg/kg, DMAPE phosphate salt 50 mg/kg and Ara-C (50 mg/kg), respectively. The growth of KG-1a-Luc cells was monitored every week by their luciferase signal. Five weeks after the implantation, all mice were sacrificed and their livers, kidneys, and bone marrow were excised for ex vivo bioluminescent imaging. The bioluminescent signal intensity was all quantified using the Living Image software (version 4.2, Carliper Life Science, Inc., Hopkinton, MA, USA) and is presented as photons/second/cm^2/sr (sr denotes steradian).
# primary CD34+ AML cells = assay: CCK-8 cell viability assay on primary CD34+ AML cells; type: cell-based, human; conditions: 48 h, CCK-8
# Procedure: (§1) The mononuclear cells were further enriched for CD34 positive cells using the MACS CD34 MicroBead kit following the manufacturer's protocol. Enriched CD34 cell-purity was measured by flow cytometry-based quantification of cells stained using an anti-CD34-FITC antigen. Isolated CD34^+ cells were pre-incubated in the IMDM-based serum-free media for 1 h before the addition of drugs. PepE was dissolved in DMSO to make a 100 mM stock solution and stored in aliquots at – 20 °C. The 100 mM stock solution was diluted with DMSO to 10 mM and then diluted with PBS to 1 mM before treating the cells at the indicated concentrations. DMAPE and Ara-C were diluted in PBS to 1 mM concentration before use.
# (§2) Unless otherwise mentioned, 2 × 10^4 cells were seeded at 96-well plates (Corning, New York, USA) in the IMDM-based serum-free media for 1 h. Then, the cells were incubated with different concentrations of PepE and DMAPE at 37 °C in a 5% CO2 incubator for 48 h. At the end of the treatment, 10 μL CCK-8 solution was added to each well and incubated for an additional 2 h at 37 °C, and the absorbance at 450 nm was measured with a microplate reader (Thermo Scientific, Multiskan GO, Finland). Inhibition ratio (%) was calculated as [(absorbance of control − absorbance of the test sample)/absorbance of control] x 100%.
# [1] = tested on: CD34+ NBM cells and hBMSCs; assay: CCK-8 cell viability assay on normal CD34+ NBM cells and hBMSCs; type: cell-based, human; conditions: 48 h, CCK-8
# Procedure: as §1, §2
# NADPH-reduced TrxR1 = target: T2, NADPH-reduced TrxR1 (Homo sapiens, UniProt Q16881); assay: Bio-layer interferometry (BLI) binding assay, TrxR1; conditions: NADPH-reduced TrxR1 0.9 μM, 25 °C
# T2 construct: purchased Abcam ab204206
# T2 sequence (Q16881 1-499 isoform Q16881-5): T1 sequence (Q16881 1-499 isoform Q16881-5)
# Procedure: The binding kinetics of PepE or PepA to purified recombinant proteins were determined using BLI on an Octet RED 96 system (ForteBio, Shanghai, China) following the manufacturer's protocol. All interaction analyses were performed at 25 °C in PBS with 0.2% DMSO. Purified recombinant proteins (0.9 μM, the TrxR1 full length and TrxR1 protein fragment were pre-reduced by 400 μM of NADPH before test) were pre-labeled with biotin using […] (Abcam) following the manufacturer's instruction. Loading of the Dip and Read Super Streptavidin (SSA) Biosensors (ForteBio) were conducted by exposing biotinylated proteins to biosensor tips for 2 h. The 96-well microplates used in the Octet were filled with 200 μL sample or buffer per well and agitated at 1000 rpm. The loaded biosensors were washed in buffer for 600 s and transferred to wells containing PepE at concentrations of 0.625, 1.25, 2.5, 5, and 10 μM or PepA at concentrations of 1.25, 2.5, 5, 10 and 20 μM, respectively, in the buffer. […] Reference measurements were conducted using the buffer instead of PepE (or PepA). A parallel set of SA unloaded biosensors was prepared to act as a control. The sample-sensorgrams were corrected by subtracting the double reference curve. Kinetic parameters (Kon and Kdis) and affinity (KD) were determined from a global fit to a 1:1 binding model of the data between proteins and PepE using Octet software (ForteBio).
smiles,measurement,setting,value
CC(C)=CC[C@@H](O)C1=CC(=O)c2c(O)ccc(O)c2C1=O [shikonin],IC50,TrxR1,~1600 nM
"O=[N+]([O-])c1ccc(Cl)c([N+](=O)[O-])c1 [DNCB, 1-chloro-2,4-dinitrobenzene, reference compound]",BIAM alkylation of Sec residue of TrxR1,Sec residue in TrxR1,significantly block
"Nc1ccn([C@@H]2O[C@H](CO)[C@@H](O)[C@@H]2O)c(=O)n1 [Ara-C, Cytarabine, reference compound]",in vivo efficacy against KG-1a CD34+ cells,KG-1a CD34+ cells,not obvious; also recorded: not significant
same,toxicity against AML progenitor cells,primary CD34+ AML cells,no apparent toxicity
same,toxicity on NBM and hBMSC cells in side-by-side comparison,[1],more toxic than PepE and DMAPE
"C=C1C(=O)O[C@H]2[C@H]1CC/C(C)=C/CC[C@@]1(C)O[C@@H]21 [parthenolide, Parthenolide]",IC50,TrxR1,~3000 nM
"COc1cc(C(c2cc(OC)c3c(c2)OCO3)[C@@H]2COC(=O)[C@H]2C)cc2c1OCO2 [PepA, Peperomin A, reference compound]",Kd,NADPH-reduced TrxR1,111000 nM

# Source: PMC6434189, “Peperomin E and its orally bioavailable analog induce oxidative stress-mediated apoptosis of acute myeloid leukemia progenitor cells by targeting thioredoxin reductase” (Redox Biology, 2019)
